Data published in patent US8337869B2, “Analgesic cream” (priority 2007, dated 2012).

Key:
LTB4 = assay: Inhibition of LTB4 production by DPG; details: concentrations of DPG contained in Theraflex
PGE2 = assay: Inhibition of PGE2 production by DPG; details: concentrations of DPG contained in Theraflex

SMILES: CC1(C)[C@@H](O[C@H]2O[C@H](C(=O)[O-])[C@@H](O)[C@H](O)[C@H]2O[C@@H]2O[C@H](C(=O)[O-])[C@@H](O)[C@H](O)[C@H]2O)CC[C@]2(C)[C@H]3C(=O)C=C4[C@@H]5C[C@@](C)(C(=O)O)CC[C@]5(C)CC[C@@]4(C)[C@]3(C)CC[C@@H]12.[K+].[K+] [DPG, dipotassium glycyrrhizinate]
- inhibition of production of LTB4 (LTB4): greater than 50%
- inhibition of production of PGE2 (PGE2): greater than 50%
